{"source": "PubChem BioAssay (NCI)", "test_in_all_cases": "DTP human tumour cell line panel, 48 h", "key": {"786-0 renal": {"tested_on": "786-0 renal"}, "A498 renal": {"tested_on": "A498 renal"}, "A549 NSCLC": {"tested_on": "A549 NSCLC"}, "ACHN renal": {"tested_on": "ACHN renal"}, "BT-549 breast": {"tested_on": "BT-549 breast"}, "CAKI-1 renal": {"tested_on": "CAKI-1 renal"}, "CCRF-CEM leukemia": {"tested_on": "CCRF-CEM leukemia"}, "COLO 205 colon": {"tested_on": "COLO 205 colon"}, "DU-145 prostate": {"tested_on": "DU-145 prostate"}, "EKVX NSCLC": {"tested_on": "EKVX NSCLC"}, "HCC-2998 colon": {"tested_on": "HCC-2998 colon"}, "HCT-116 colon": {"tested_on": "HCT-116 colon"}, "HCT-15 colon": {"tested_on": "HCT-15 colon"}, "HL-60(TB) leukemia": {"tested_on": "HL-60(TB) leukemia"}, "HOP-62 NSCLC": {"tested_on": "HOP-62 NSCLC"}, "HOP-92 NSCLC": {"tested_on": "HOP-92 NSCLC"}, "HS 578T breast": {"tested_on": "HS 578T breast"}, "HT29 colon": {"tested_on": "HT29 colon"}, "K-562 leukemia": {"tested_on": "K-562 leukemia"}, "KM12 colon": {"tested_on": "KM12 colon"}, "LOX IMVI melanoma": {"tested_on": "LOX IMVI melanoma"}, "M14 melanoma": {"tested_on": "M14 melanoma"}, "MALME-3M melanoma": {"tested_on": "MALME-3M melanoma"}, "MCF7 breast": {"tested_on": "MCF7 breast"}, "MDA-MB-231 breast": {"tested_on": "MDA-MB-231 breast"}, "MDA-MB-435": {"tested_on": "MDA-MB-435"}, "MDA-N": {"tested_on": "MDA-N"}, "MOLT-4 leukemia": {"tested_on": "MOLT-4 leukemia"}, "NCI-H226 lung": {"tested_on": "NCI-H226 lung"}, "NCI-H23 lung": {"tested_on": "NCI-H23 lung"}, "NCI-H460 lung": {"tested_on": "NCI-H460 lung"}, "NCI-H522 lung": {"tested_on": "NCI-H522 lung"}, "NCI/ADR-RES ovarian": {"tested_on": "NCI/ADR-RES ovarian"}, "OVCAR-3 ovarian": {"tested_on": "OVCAR-3 ovarian"}, "OVCAR-4 ovarian": {"tested_on": "OVCAR-4 ovarian"}, "OVCAR-5 ovarian": {"tested_on": "OVCAR-5 ovarian"}, "OVCAR-8 ovarian": {"tested_on": "OVCAR-8 ovarian"}, "PC-3 prostate": {"tested_on": "PC-3 prostate"}, "RPMI-8226 leukemia": {"tested_on": "RPMI-8226 leukemia"}, "RXF 393 renal": {"tested_on": "RXF 393 renal"}, "SF-268 CNS": {"tested_on": "SF-268 CNS"}, "SF-295 CNS": {"tested_on": "SF-295 CNS"}, "SF-539 CNS": {"tested_on": "SF-539 CNS"}, "SK-MEL-2 melanoma": {"tested_on": "SK-MEL-2 melanoma"}, "SK-MEL-28 melanoma": {"tested_on": "SK-MEL-28 melanoma"}, "SK-MEL-5 melanoma": {"tested_on": "SK-MEL-5 melanoma"}, "SK-OV-3 ovarian": {"tested_on": "SK-OV-3 ovarian"}, "SN12C renal": {"tested_on": "SN12C renal"}, "SNB-19 CNS": {"tested_on": "SNB-19 CNS"}, "SNB-75 CNS": {"tested_on": "SNB-75 CNS"}, "SR leukemia": {"tested_on": "SR leukemia"}, "SW-620 colon": {"tested_on": "SW-620 colon"}, "T-47D breast": {"tested_on": "T-47D breast"}, "TK-10 renal": {"tested_on": "TK-10 renal"}, "U251 CNS": {"tested_on": "U251 CNS"}, "UACC-257 melanoma": {"tested_on": "UACC-257 melanoma"}, "UACC-62 melanoma": {"tested_on": "UACC-62 melanoma"}, "UO-31 renal": {"tested_on": "UO-31 renal"}}, "note": "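Grown in 96-well plates, cells were treated for 48 hours with each compound at five concentrations. Insufficient inhibition: endpoint recorded as highest concentration tested. The concentration for full growth arrest is given as TGI.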", "data": [{"smiles": "O=C(N1CCN(c2ccccc2)CC1)N(C(=O)C1(c2ccc(Cl)cc2)CCCC1)S(=O)(=O)c1ccccc1", "values": [{"measurement": "TGI", "setting": "786-0 renal", "value": "> 100", "unit": "µM"}, {"measurement": "TGI", "setting": "A498 renal", "value": 0.429, "unit": "µM"}, {"measurement": "TGI", "setting": "A549 NSCLC", "value": "> 100", "unit": "µM"}, {"measurement": "TGI", "setting": "ACHN renal", "value": 45.6, "unit": "µM"}, {"measurement": "TGI", "setting": "BT-549 breast", "value": 80.2, "unit": "µM"}, {"measurement": "TGI", "setting": "CAKI-1 renal", "value": 71.4, "unit": "µM"}, {"measurement": "TGI", "setting": "CCRF-CEM leukemia", "value": "> 100", "unit": "µM"}, {"measurement": "TGI", "setting": "COLO 205 colon", "value": 60.3, "unit": "µM"}, {"measurement": "TGI", "setting": "DU-145 prostate", "value": "> 100", "unit": "µM"}, {"measurement": "TGI", "setting": "EKVX NSCLC", "value": 58.2, "unit": "µM"}, {"measurement": "TGI", "setting": "HCC-2998 colon", "value": 58.5, "unit": "µM"}, {"measurement": "TGI", "setting": "HCT-116 colon", "value": 52.7, "unit": "µM"}, {"measurement": "TGI", "setting": "HCT-15 colon", "value": 80.1, "unit": "µM"}, {"measurement": "TGI", "setting": "HL-60(TB) leukemia", "value": 68.1, "unit": "µM"}, {"measurement": "TGI", "setting": "HOP-62 NSCLC", "value": 88.6, "unit": "µM"}, {"measurement": "TGI", "setting": "HOP-92 NSCLC", "value": 74.4, "unit": "µM"}, {"measurement": "TGI", "setting": "HS 578T breast", "value": 88.2, "unit": "µM"}, {"measurement": "TGI", "setting": "HT29 colon", "value": 75.8, "unit": "µM"}, {"measurement": "TGI", "setting": "K-562 leukemia", "value": "> 100", "unit": "µM"}, {"measurement": "TGI", "setting": "KM12 colon", "value": "> 100", "unit": "µM"}, {"measurement": "TGI", "setting": "LOX IMVI melanoma", "value": 37.9, "unit": "µM"}, {"measurement": "TGI", "setting": "M14 melanoma", "value": 47.3, "unit": "µM"}, {"measurement": "TGI", "setting": "MALME-3M melanoma", "value": 72.3, "unit": "µM"}, {"measurement": "TGI", "setting": "MCF7 breast", "value": 74.9, "unit": "µM"}, {"measurement": "TGI", "setting": "MDA-MB-231 breast", "value": 74.5, "unit": "µM"}, {"measurement": "TGI", "setting": "MDA-MB-435", "value": "> 100", "unit": "µM"}, {"measurement": "TGI", "setting": "MDA-N", "value": 51.2, "unit": "µM"}, {"measurement": "TGI", "setting": "MOLT-4 leukemia", "value": 59.1, "unit": "µM"}, {"measurement": "TGI", "setting": "NCI-H226 lung", "value": 99.3, "unit": "µM"}, {"measurement": "TGI", "setting": "NCI-H23 lung", "value": 69.1, "unit": "µM"}, {"measurement": "TGI", "setting": "NCI-H460 lung", "value": "> 100", "unit": "µM"}, {"measurement": "TGI", "setting": "NCI-H522 lung", "value": 36.6, "unit": "µM"}, {"measurement": "TGI", "setting": "NCI/ADR-RES ovarian", "value": 70.8, "unit": "µM"}, {"measurement": "TGI", "setting": "OVCAR-3 ovarian", "value": 82.6, "unit": "µM"}, {"measurement": "TGI", "setting": "OVCAR-4 ovarian", "value": 64.2, "unit": "µM"}, {"measurement": "TGI", "setting": "OVCAR-5 ovarian", "value": 65.7, "unit": "µM"}, {"measurement": "TGI", "setting": "OVCAR-8 ovarian", "value": 89.4, "unit": "µM"}, {"measurement": "TGI", "setting": "PC-3 prostate", "value": 76.1, "unit": "µM"}, {"measurement": "TGI", "setting": "RPMI-8226 leukemia", "value": "> 100", "unit": "µM"}, {"measurement": "TGI", "setting": "RXF 393 renal", "value": "> 100", "unit": "µM"}, {"measurement": "TGI", "setting": "SF-268 CNS", "value": "> 100", "unit": "µM"}, {"measurement": "TGI", "setting": "SF-295 CNS", "value": 70.6, "unit": "µM"}, {"measurement": "TGI", "setting": "SF-539 CNS", "value": 49.7, "unit": "µM"}, {"measurement": "TGI", "setting": "SK-MEL-2 melanoma", "value": 38.9, "unit": "µM"}, {"measurement": "TGI", "setting": "SK-MEL-28 melanoma", "value": "> 100", "unit": "µM"}, {"measurement": "TGI", "setting": "SK-MEL-5 melanoma", "value": 40.7, "unit": "µM"}, {"measurement": "TGI", "setting": "SK-OV-3 ovarian", "value": 82.9, "unit": "µM"}, {"measurement": "TGI", "setting": "SN12C renal", "value": 94.6, "unit": "µM"}, {"measurement": "TGI", "setting": "SNB-19 CNS", "value": 72.2, "unit": "µM"}, {"measurement": "TGI", "setting": "SNB-75 CNS", "value": "> 100", "unit": "µM"}, {"measurement": "TGI", "setting": "SR leukemia", "value": "> 100", "unit": "µM"}, {"measurement": "TGI", "setting": "SW-620 colon", "value": "> 100", "unit": "µM"}, {"measurement": "TGI", "setting": "T-47D breast", "value": "> 100", "unit": "µM"}, {"measurement": "TGI", "setting": "TK-10 renal", "value": "> 100", "unit": "µM"}, {"measurement": "TGI", "setting": "U251 CNS", "value": 62.4, "unit": "µM"}, {"measurement": "TGI", "setting": "UACC-257 melanoma", "value": 88.1, "unit": "µM"}, {"measurement": "TGI", "setting": "UACC-62 melanoma", "value": 51.7, "unit": "µM"}, {"measurement": "TGI", "setting": "UO-31 renal", "value": 92.9, "unit": "µM"}]}]}
